Experimental data from article PMC4813479, “β-Subunit Binding Is Sufficient for Ligands to Open the Integrin αIIbβ3 Headpiece” (The Journal of Biological Chemistry, 2015).
Several values for one entry are separate records, joined by “and”; a condition that tells them apart may be missing. Identical values can stand only once. Like-named read-outs stand apart in the source and are kept apart here. Each block holds one compound with its values, some of them ahead of it. Non-standard residues stand in square brackets, D forms with d. Residues, ends and D or L forms follow the SMILES beside them. No end group written: not given here.

Legend:
[1] = target: T1, CHO cells stably expressing full-length human αIIbβ3 (Homo sapiens, UniProt P05106+P08514); assay: Ligand-induced binding site (LIBS1) epitope expression, flow cytometry; assay type: cell-based
T1 construct: CHO K1 cells stably transfected with full-length αIIbβ3; expressed in transfected cells; host or cells: CHO K1 cells, stably transfected
T1 sequence (P08514 32-887 limits assumed): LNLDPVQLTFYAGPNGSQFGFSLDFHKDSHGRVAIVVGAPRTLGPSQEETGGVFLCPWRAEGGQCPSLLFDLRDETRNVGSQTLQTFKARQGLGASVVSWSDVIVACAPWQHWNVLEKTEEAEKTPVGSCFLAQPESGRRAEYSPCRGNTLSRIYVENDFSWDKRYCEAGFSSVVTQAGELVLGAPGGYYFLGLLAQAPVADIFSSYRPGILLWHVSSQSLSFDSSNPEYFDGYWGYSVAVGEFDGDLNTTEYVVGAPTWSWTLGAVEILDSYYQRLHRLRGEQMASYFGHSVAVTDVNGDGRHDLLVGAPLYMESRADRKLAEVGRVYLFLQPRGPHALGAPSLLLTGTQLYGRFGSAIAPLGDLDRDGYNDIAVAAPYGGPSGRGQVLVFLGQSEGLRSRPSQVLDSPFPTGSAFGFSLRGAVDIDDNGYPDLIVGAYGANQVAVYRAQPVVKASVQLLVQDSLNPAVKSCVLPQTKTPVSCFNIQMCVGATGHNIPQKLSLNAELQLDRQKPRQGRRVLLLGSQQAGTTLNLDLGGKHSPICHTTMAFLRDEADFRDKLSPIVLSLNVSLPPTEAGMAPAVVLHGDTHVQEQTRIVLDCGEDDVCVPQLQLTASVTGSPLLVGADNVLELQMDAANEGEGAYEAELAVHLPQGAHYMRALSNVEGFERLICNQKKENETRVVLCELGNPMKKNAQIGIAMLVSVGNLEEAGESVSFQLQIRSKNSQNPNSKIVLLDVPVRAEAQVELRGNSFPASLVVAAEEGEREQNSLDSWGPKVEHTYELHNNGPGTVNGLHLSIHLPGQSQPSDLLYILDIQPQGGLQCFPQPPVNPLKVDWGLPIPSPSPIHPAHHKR
T1 sequence (P08514 891-1039 partner limits assumed): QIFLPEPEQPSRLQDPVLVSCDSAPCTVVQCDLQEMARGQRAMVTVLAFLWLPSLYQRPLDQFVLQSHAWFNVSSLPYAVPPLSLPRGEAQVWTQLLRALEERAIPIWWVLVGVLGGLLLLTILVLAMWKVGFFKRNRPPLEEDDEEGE
T1 sequence (P05106 27-788): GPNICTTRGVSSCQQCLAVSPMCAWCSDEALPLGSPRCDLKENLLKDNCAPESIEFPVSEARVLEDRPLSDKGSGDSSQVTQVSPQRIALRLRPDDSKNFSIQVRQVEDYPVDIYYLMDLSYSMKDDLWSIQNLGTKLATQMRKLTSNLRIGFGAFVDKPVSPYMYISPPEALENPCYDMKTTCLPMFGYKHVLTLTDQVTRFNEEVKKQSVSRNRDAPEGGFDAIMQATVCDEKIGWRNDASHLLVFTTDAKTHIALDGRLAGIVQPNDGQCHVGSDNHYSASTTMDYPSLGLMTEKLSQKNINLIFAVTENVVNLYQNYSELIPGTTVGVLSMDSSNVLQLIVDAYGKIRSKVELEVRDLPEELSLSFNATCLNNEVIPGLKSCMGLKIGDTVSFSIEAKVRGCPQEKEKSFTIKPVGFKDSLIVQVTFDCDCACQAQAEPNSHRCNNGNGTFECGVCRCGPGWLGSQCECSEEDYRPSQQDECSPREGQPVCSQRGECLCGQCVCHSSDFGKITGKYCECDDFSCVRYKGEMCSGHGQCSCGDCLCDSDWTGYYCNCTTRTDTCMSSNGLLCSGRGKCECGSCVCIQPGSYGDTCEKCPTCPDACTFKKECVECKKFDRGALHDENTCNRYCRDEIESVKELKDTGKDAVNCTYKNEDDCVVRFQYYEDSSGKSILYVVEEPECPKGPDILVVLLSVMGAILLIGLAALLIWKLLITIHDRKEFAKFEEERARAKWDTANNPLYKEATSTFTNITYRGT
Experimental: CHO K1 cells stably transfected with full-length αIIbβ3 ([16]) were incubated at room temperature with serially diluted peptide in 20 mM HEPES, pH 7.4, 150 mM NaCl, 5.5 mM glucose, 1% BSA, 1 mM Mg^2+/Ca^2+, and 10 μg/ml LIBS1 antibody for 30 min. Mixtures were washed twice in the same buffer minus LIBS1. The washed cells were incubated with FITC-conjugated anti-mouse antibody at room temperature for 30 min, washed again, chilled on ice, and subjected to flow cytometry. The dose-response curves were fit, and EC50 values were calculated by Prism GraphPad.

[2] = target: T2, αIIbβ3 headpiece (Homo sapiens, UniProt P05106+P08514); assay: Size-exclusion chromatography (Superdex 200) of headpiece with peptide: headpiece opening; conditions: for elution volume of αIIbβ3 headpiece: Superdex 200, 1 mM peptide, buffer alone 12.56 ± 0.01 ml, mean; for Stokes radii, Size-exclusion: αIIbβ3 headpiece (10 μM) + 1 mM peptide, Superdex 200, TBS, 1 mM Mg2+/Ca2+, 25 °C, 30 min, headpiece alone 4.78 ± 0.02, duplicate, mean and difference from mean
T2 sequence (P08514 32-652 limits assumed): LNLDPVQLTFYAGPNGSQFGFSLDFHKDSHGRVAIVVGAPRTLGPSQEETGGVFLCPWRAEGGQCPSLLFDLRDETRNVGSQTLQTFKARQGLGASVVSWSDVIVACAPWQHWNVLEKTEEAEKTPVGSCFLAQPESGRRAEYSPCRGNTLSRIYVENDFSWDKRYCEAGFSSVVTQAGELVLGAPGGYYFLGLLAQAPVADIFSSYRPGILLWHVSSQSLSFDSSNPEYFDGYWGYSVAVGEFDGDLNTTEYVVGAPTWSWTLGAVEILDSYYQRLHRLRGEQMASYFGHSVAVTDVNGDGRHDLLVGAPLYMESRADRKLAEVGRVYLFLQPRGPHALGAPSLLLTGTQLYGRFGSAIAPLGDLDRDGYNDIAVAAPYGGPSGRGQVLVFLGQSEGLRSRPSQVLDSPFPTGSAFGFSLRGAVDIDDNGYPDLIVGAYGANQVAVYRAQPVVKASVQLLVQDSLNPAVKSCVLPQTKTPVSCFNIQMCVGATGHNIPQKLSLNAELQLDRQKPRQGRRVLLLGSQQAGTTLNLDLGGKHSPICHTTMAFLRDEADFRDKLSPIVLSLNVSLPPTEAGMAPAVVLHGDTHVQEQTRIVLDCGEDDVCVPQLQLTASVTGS
T2 sequence (P05106 27-498 limits assumed): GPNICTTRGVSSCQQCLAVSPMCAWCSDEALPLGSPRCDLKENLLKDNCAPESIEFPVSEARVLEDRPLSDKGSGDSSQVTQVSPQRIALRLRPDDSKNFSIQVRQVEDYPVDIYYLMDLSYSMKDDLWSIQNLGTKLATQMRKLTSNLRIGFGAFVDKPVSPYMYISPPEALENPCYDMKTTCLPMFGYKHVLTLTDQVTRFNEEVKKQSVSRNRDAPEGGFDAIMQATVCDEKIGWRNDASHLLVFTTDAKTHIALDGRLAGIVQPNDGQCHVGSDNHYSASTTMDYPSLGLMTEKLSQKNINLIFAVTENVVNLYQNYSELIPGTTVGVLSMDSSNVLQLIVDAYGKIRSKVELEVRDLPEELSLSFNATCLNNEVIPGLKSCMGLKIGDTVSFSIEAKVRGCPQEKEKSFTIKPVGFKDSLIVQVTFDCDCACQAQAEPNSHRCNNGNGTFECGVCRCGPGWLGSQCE
Experimental: (§1) Digested headpiece was purified by passage through a nickel-nitrilotriacetic acid column ([13]). For Stokes radius measurements, the re-purified headpiece at 10 μM (1 mg/ml by A280) was incubated with 1 mM peptide ligand in 20 mM TBS with 1 mM Mg^2+ and 1 mM Ca^2+ at 25 °C for 30 min and then applied to a Superdex 200 column (GE Healthcare Life Sciences) pre-equilibrated with the same buffer containing 1 mM peptide. Calibration and conversion of elution volume to Stokes radius was as described ([11]). For DLS, 20 μM chymotrypsin-treated, re-purified headpiece was filtered through a 100 nm cutoff membrane (Millipore Ultrafree centrifugal filter), incubated with 1 mM peptide in TBS plus 1 mM Mg^2+/Ca^2+ for 10 min at 25 °C in the cuvette, and read in the Viscotek 802 DLS (Viscotek Corp.). The DLS-derived hydration radii (Rh) were obtained by intensity-based fitting using the OmniSize program for 2–3 independent measurements using the same batch of integrin headpiece sample, but measured in different days. Each measurement was an average of at least fifteen 10-s reads.
(§2) The change in Stokes radius was also measured by size-exclusion chromatography (Fig. 3B).

[3] = target: T2, αIIbβ3 headpiece; assay: Dynamic light scattering (DLS) of headpiece with peptide: headpiece opening; conditions: αIIbβ3 headpiece (20 μM) + 1 mM peptide; TBS pH 7.4, 1 mM Mg2+, 1 mM Ca2+, 10 min, 25 °C; headpiece alone 4.69 ± 0.02; triplicate, mean ± S.D.
Experimental: as §1, §2

[4] = target: T2, αIIbβ3 headpiece; assay: Ligand soaking into closed αIIbβ3 headpiece crystals, conformational state by X-ray structure; design: increasing the concentration of purified recombinant αIIbβ3 headpiece to saturation; C-terminal α-helical coiled-coil (C); made in house; conditions: 4 °C, state 1 closed, state 8 open
Experimental: The αIIbβ3 headpiece was crystallized in the closed conformation with the thigh domain removed ([11]). Briefly, chymotrypsin- and carboxypeptidase-treated αIIbβ3-10E5 Fab complex was concentrated to 10 mg/ml in TBS (20 mM Tris, 150 mM NaCl, pH 7.4) with 1 mM Mg^2+, 1 mM Ca^2+ and crystallized in 11% PEG 8000, 0.2 M ammonium sulfate, 0.1 M Tris-HCl, pH 8.9 at 4 °C ([11]). Crystals were then stabilized with the same crystallization buffer but containing 15% PEG 8000, and glycerol concentration was incremented in 5% steps to 20% for cryoprotection. Finally, crystals were soaked in ligand in the same buffer with defined metal conditions for a specified duration at 4 °C (see Table 1). Diffraction data were collected at beamline ID-23 of the Advanced Photon Source (Argonne, IL). Resolution limit was determined by cross-correlation ([14]). Refinements using Phenix ([15]) were as described previously ([4]).
We soaked AGDV peptide into αIIbβ3 headpiece crystals in the closed conformation (state 1) in 1 mM Mn^2+ and 0.2 mM Ca^2+ and were able to trap four distinct intermediate states during headpiece opening (Table 1). […] Two copies of the αIIbβ3 headpiece complex (molecules 1 and 2) exist in one asymmetric unit ([4]), so we were able to obtain two different conformational states in a single crystal (Table 1). Based on the conformation and position of the moving parts of the βI domain, i.e. the β1-α1 loop, α1-helix, β6-α7 loop, and the ADMIDAS metal, each intermediate (Fig. 4) is assigned a state number between 1 (Fig. 4A) and 8 (Fig. 4B) corresponding to previous RGD-bound intermediates ([4]). AGDV binds in the groove formed between the α- and β-subunits (Fig. 4, C, E, G, and I), but has limited contact with α, because it occupies only a portion (about two-thirds) of the groove occupied by RGD (Fig. 4B). The N-terminal amine of AGDV is >9.0 Å away from Asp-224 of αIIb, which forms salt bridges to the Arg of RGD and the Lys of KQAGDV. Moreover, unlike the extended backbone conformation adopted by RGD (Fig. 4, A and B), the backbone of AGDV is curved (Fig. 4, C, E, G, and I).

[5] = target: T2, αIIbβ3 headpiece; assay: Fluorescence anisotropy binding assay (saturation and competition with FITC-dodecapeptide); design: increasing the concentration of purified recombinant αIIbβ3 headpiece to saturation; C-terminal α-helical coiled-coil (C); made in house; conditions: for Kd: read-out: KD, competitive binding; for reduction in affinity relative to AGDV: fluorescence anisotropy, Mn2+/Ca2+
Experimental: Binding affinities for different peptide ligands were measured using fluorescence anisotropy as described previously ([12]). Anisotropy is defined as (F‖ − F⊥)/(F‖ + 2F⊥), where F‖ and F⊥are the fluorescence intensities parallel and perpendicular to the excitation plane, respectively. mA units (shown in figures) correspond to 1,000 × anisotropy. […] KD^F* was fitted using one-site, specific binding; i.e. A = Amax × Citg/(KD^F* + Citg), where A represents the anisotropy signal from specific binding, Citg represents the concentration of integrin αIIbβ3 headpiece, and Amax is the maximum anisotropy signal. Background anisotropy obtained by adding an excess of 10 μM tirofiban was subtracted from anisotropy.
I50 values for unlabeled peptides were obtained by least squares fitting. […] All measurements were in 20 mM HEPES, pH 7.5, 150 mM NaCl, 2 mM MnCl2, 0.1 mM CaCl2. The Prism GraphPad program (La Jolla, CA) was used to fit the saturation binding curve, inhibition curves, and I50 values.

[6] = system: αIIbβ3; conditions: cited from earlier work
Text: Ro-435054 is a 4-residue peptidomimetic, with an N-terminal amidinobenzoyl, a β-alanine, an L-Asp, and a C-terminal L-Phe (Fig. 7A). […] The high-affinity RGDF peptide ([19]) may be considered both fibrinogen-mimetic and RGD-mimetic. RGDF has the same two C-terminal a ...

[7] = system: fibrinogen binding to platelets; design: method as in PMID 6326808; conditions: read-out: IC50, block of fibrinogen binding to platelets; cited from earlier work

- less effective than GRGDSP (LIBS1 EC50) ([1]; ratio of EC50 values): ~7 times
- less effective when compared with dodecapeptide (LIBS1 EC50) ([1]; ratio of EC50 values): 2.5 times
- elution volume of αIIbβ3 headpiece [2]: 12.19 ± 0.05 mL
- Stokes radii, Size-exclusion [2]: 5.17 nm
- Stokes radii, DLS [3]: 5.24 ± 0.03 nm and 5.2 nm
- Conformational states (molecule 1/molecule 2) ([4]; 50 mM ligand, Mn/Ca (2 mM MnCl2, 0.1 mM CaCl2), soak 1 week): State 7/state 2
- Conformational states (molecule 1/molecule 2) ([4]; 50 mM ligand, Mn/Ca (2 mM MnCl2, 0.1 mM CaCl2), soak 2 h): State 6/state 3
- less potent than the dodecapeptide ([5]; in Mn2+/Ca2+, ratio of KD values): ~7 times
- Kd [5]: 9.03 ± 2.75 µM
Compound: CC(C)[C@H](NC(=O)[C@H](CC(=O)O)NC(=O)CNC(=O)[C@H](C)N)C(=O)O [AGDV] (H-AGDV-OH)

- Conformational states (molecule 1/molecule 2) ([4]; 1 mM ligand, Mg/Ca (1 mM MgCl2, 1 mM CaCl2), soak 2 h): State 6/state 3
Compound: N=C(N)c1ccc(C(=O)NCCC(=O)N[C@@H](CC(=O)O)C(=O)N[C@@H](Cc2ccccc2)C(=O)O)cc1 [Ro-435054]
- binds the high-affinity state better than the low-affinity state [6]: ~100 fold
- Kd ([6]; read-out: KD, high-affinity state of αIIbβ3): 0.006 µM
- Kd ([6]; read-out: KD, low-affinity state of αIIbβ3): 0.58 µM

- reduction in affinity relative to AGDV ([5]; ratio of KD values): 7.5 fold
- Kd [5]: 67.6 ± 23.3 µM
Compound: COC(=O)[C@@H](NC(=O)[C@H](CC(=O)O)NC(=O)CNC(=O)[C@H](C)N)C(C)C [AGDV-OCH3] (H-AGDV-OMe)

More lines, now with the values behind:

Compound: RGDF [reference compound]
- elution volume of αIIbβ3 headpiece [2]: 12.15 ± 0.06 mL
- Stokes radii, Size-exclusion [2]: 5.23 nm
- Stokes radii, DLS [3]: 5.19 ± 0.04 nm

Compound: AGD
- IC50 [7]: ~100 µM

Compound: CC(C)[C@H](NC(=O)[C@H](CC(=O)O)NC(=O)CNC(=O)[C@H](C)N)C(N)=O [AGDV-NH2] (H-AGDV-NH2)
- Kd [5]: 50.9 ± 13 µM

Compound: CC(=O)N[C@@H](C)C(=O)NCC(=O)N[C@@H](CC(=O)O)C(=O)N[C@H](C(=O)O)C(C)C [Ac-AGDV, N-acetylated AGDV] (Ac-AGDV-OH)
- Kd [5]: 1 ± 0.46 µM

Compound: HHLGGAKQAGDV [fibrinogen γC dodecapeptide, reference compound]
- EC50 ([1]; CHO K1 αIIbβ3 transfectants, 1 mM Mg2+/1 mM Ca2+, 10 μg/ml LIBS1, 30 min, room temperature, flow cytometry, mean ± S.D., read-out: EC50, LIBS1 epitope exposure): 578 ± 222 µM
- Kd [5]: 1.27 ± 0.08 µM

Compound: CC(C)[C@@H](NC(=O)[C@H](CC(=O)O)NC(=O)CNC(=O)[C@H](C)N)C(=O)O [AGD(v)] (H-AGD[dV]-OH)
- reduction in affinity relative to AGDV ([5]; ratio of KD values): 24 fold
- Kd [5]: 217 ± 85.2 µM
